Assay results from patent publication US11052154B2, “Ras protein degradation inducing molecule and pharmaceutical composition” (Tokyo University of Science Foundation, priority 2016, dated 2021).

How the values were obtained:
SW1990 cells = assay: Apoptosis induction in SW1990 cells, FACS analysis (Annexin V/PI); format: cell-based, human; conditions: SW1990 cells expressing G12D mutant K-Ras, 24 hours after addition; FIGS. 6B, 7B
Experimental: In Example 7, apoptosis induction in a case where TUS-007, Ras-SOS, or Ras-SOS-NH2 was added to HeLa cells or SW1990 cells (human pancreatic cancer cells) had been added was evaluated by the FACS analysis. It is noted that in HeLa cells, the wild-type K-Ras protein (K-Ras-WT) is expressed, and in SW1990 cells, the G12D mutant K-Ras protein (K-Ras-G12D) is expressed.
HeLa cells or SW1990 cells were seeded in a 24-well plate at a cell density of 8×10^4 cells/well, and then cultured under conditions of 37° C. and 5 vol % CO2 for 16 hours.
After 16 hours from cell seeding, TUS-007, Ras-SOS, or Ras-SOS-NH2 were added to HeLa cells or SW1990 cells as follows. As a medium, a serum-free medium (37° C.) in which 1 mass % L-glutamine solution (Sigma-Aldrich) was added to D-MEM (high D-glucose, phenol red, sodium pyruvate (Wako Pure Chemical Industries, Ltd.)) was used. It is noted that the L-glutamine solution was added immediately before use. A DMSO solution containing TUS-007, Ras-SOS, or Ras-SOS-NH2 was mixed with the medium so that the concentration of DMSO was 1 vol %, and added to each well at 500 μL/well, and cultured under conditions of 37° C. and 5 vol % CO2. As a control, DMSO was used.
The medium was removed 24 hours after addition of TUS-007, Ras-SOS, or Ras-SOS-NH2, and then PBS was added to wash the cells. After removing PBS, trypsin (0.25 w/v % trypsin-1 mmol/L EDTA⋅4 Na solution with phenol red) (Wako Pure Chemical Industries, Ltd.) at 37° C. was added to each well at 200 μL/well, and cultured under conditions of 37° C. and 5 vol % CO2 for 1 minute. […]
A BD FACSCanto™ II (BD Biosciences) was used for flow cytometry. […] The proportion of Annexin V-positive and PI-negative cells was calculated using an analysis software FlowJo™ (TOMY Digital Biology Co., Ltd.), and the proportion was defined as a proportion of apoptosis cells.
In Example 8, apoptosis induction in a case where TUS-007, Ras-SOS-NH2, or erlotinib as an anticancer agent (EGFR inhibitor) was added to HeLa cells or SW1990 cells was evaluated by FACS analysis as in Example 7.

[1] = Acute toxicity, single oral dose in Jcl:ICR mice; format: in vivo, mouse
Experimental: Acute toxicity when TUS-007 was orally administered to Jcl:ICR mice (8 weeks old, female) (CLEA Japan, Inc.) in a single dose of 80 mg/kg body weight, 300 mg/kg body weight, or 1000 mg/kg body weight was evaluated.

CCC(C)[C@H](NC(=O)CCCCCCNC(=O)[C@H](CC(C)C)NC(=O)CNC(=O)c1cc(Cl)ccc1Cl)C(=O)Nc1ccc2[nH]c(Cc3c[nH]c4ccccc34)nc2c1 (stereo in doubt) [TUS-007]
apoptosis induction (proportion of Annexin V-positive and PI-negative cells) (SW1990 cells): the effect of the apoptosis by TUS-007 was high at the same level as in the case of the HeLa cells
LD50 ([1]; single oral dose): > 1000 mg/kg body weight
general condition of the mice (acute toxicity) ([1]; single oral dose of 80, 300 or 1000 mg/kg body weight): no abnormality in the general condition of the mice
